# From patent US20240245711A1, “A 19-NOR C3,3-DISUBSTITUTED C21-N-PYRAZOLYL STEROID FOR THE TREATMENT OF MAJOR DEPRESSIVE DISORDER” (Sage Therapeutics, Inc., priority 2021, published 2024)
# Entries after “also recorded” stand apart in the source; their conditions may differ.
# Test system: adult subjects with Major Depressive Disorder
# Assay: Phase 3 open-label 1-year study: safety and tolerability (TEAEs, SAEs, C-SSRS)
# Type: in vivo, human
# Settings: for Subjects reporting TEAEs leading to dose reduction: Low dose cohort; for Subjects with Treatment Cycle Period TEAE / Subjects with Treatment Period TEAE: Study Period 1 only
# Procedure: Primary Objective: To determine the safety and tolerability of initial treatment and re-treatment(s) with Compound (1) in adults with Major Depressive Disorder (MDD) currently experiencing a major depressive episode (MDE) over a 1-year period.
# Study Population: Subjects were 18-75 years old, diagnosed with major depressive disorder (MDD) with a MADRS total score of ≥28 and a HAM-D total score of ≥20 at Screening and Day 1 (prior to dosing).
# Treatment Groups: The 30 mg and 50 mg dose groups were separated by time of enrollment. The study is comprised of two cohorts: one with Compound (1) 30 mg as a starting dose (30 mg Cohort: n=725), an initial cohort with Compound (1) 50 mg as a starting dose (50 mg Cohort: n=199). A patient receiving Compound (1) 30 mg could be dose reduced to 20 mg and patients receiving Compound (1) 50 mg could be dose reduced to 40 mg (based on tolerability). In all cohorts, Compound (1) is self-administered by patients as an oral therapy once nightly with food for 14 days.
# The study has a Screening Period of up to 28 days, a 14-day Treatment Period, and up to 1 year of Follow-up. FIG. 1 is an overview of the study.
# Antidepressants were permitted provided subjects were on a stable dose for at least 60 days prior to Day 1 and agreed to continue on the stable dose through the follow-up period (Day 42). Initiation of new antidepressants or any other medications that may potentially have an impact on efficacy or safety endpoints were not allowed between screening and completion of the Day 42 assessments.
# Eligible subjects were given Compound (1)—to be taken at home in the evening with meal.
# Subjects who continued in the Observation Period were monitored remotely via PHQ-9 assessment every two weeks. If PHQ-9 score was >=10 at any assessment, PHQ-9 assessment was switch to every week until the score came down below 10 or the subject was dosed with Compound (1) in a subsequent cycle, whichever was earlier. A subject was to come back to the site for HAM-D assessment within a week of PHQ-9 score >=10; if the HAM-D total score >=20 and at least 56 days had elapsed since the last dose of Compound (1), another dosing cycle of Compound (1) were to start. If any of these criteria were not met, the subject couldn't be treated with Compound (1) at that time. Without the trigger of PHQ-9>=10 the subject was to have a clinic visit every 8 weeks. A subject could have at most 5 cycles of treatment within a year. FIG. 2 is a depiction of the eligibility criteria of the study.
# Dose reduction from 30 mg to 20 mg or 50 mg to 40 mg was allowed in any treatment cycle if the safety and/or tolerability of the subject so warrants. […] Subjects who dose reduced from 30 mg to 20 mg still started with 30 mg in the next treatment cycle.
# The cohorts pertaining to the different doses that the subjects received were defined as following: • 50 mg cohort: This cohort includes subjects who have initiated treatment with 50 mg and received re-treatment with 50 mg only. • 30 mg cohort: This cohort includes subjects who have initiated treatment with 30 mg regardless of the dose they have received in re-treatments. • Low dose cohort: This cohort includes subjects who have initiated treatment with 30 mg and received re-treatment with 30 mg only. • Dose switch cohort: This cohort includes subjects who have received initial treatment with 30 mg and at least one subsequent re-treatment with 50 mg. • Study Period X: starts on the date of the first dose of Compound (1) in cycle X and goes up to one day prior to the first dose of the next cycle. […]
# [1] = Low Dose Cohort, ATD use at period-specific baseline No, Study Period 3
# [2] = Low Dose Cohort, ATD use at period-specific baseline No, Study Period 4
# [3] = Low Dose Cohort, ATD use at period-specific baseline No, Study Period 5
# [4] = Low Dose Cohort, ATD use at period-specific baseline Yes, Study Period 1
# [5] = Low Dose Cohort, ATD use at period-specific baseline Yes, Study Period 2
# [6] = Low Dose Cohort, ATD use at period-specific baseline Yes, Study Period 3
# [7] = Low Dose Cohort, ATD use at period-specific baseline Yes, Study Period 4
# [8] = Low Dose Cohort, ATD use at period-specific baseline Yes, Study Period 5
# [9] = overall study population (Example 5)
structure (smiles),measurement,setting,value
"C[C@@]1(O)CC[C@H]2[C@H](CC[C@@H]3[C@@H]2CC[C@]2(C)[C@@H](C(=O)Cn4cc(C#N)cn4)CC[C@@H]32)C1 [Compound (1), 1-(2-((3R,5R,8R,9R,10S,13S,14S,17S)-3-hydroxy-3,13-dimethylhexadecahydro-1H-cyclopenta[a]phenanthren-17-yl)-2-oxoethyl)-1H-pyrazole-4-carbonitrile]",Subjects with at least one Treatment period AE,"Low Dose Cohort, ATD use at period-specific baseline No, Study Period 2",51 (43.2%)
same,Subjects with a TEAE leading to study drug discontinuation,[1],0%
same,Subjects with a Treatment cycle period AE leading to study withdrawal,[1],1 (2.4%)
same,Subjects with at least one TEAE,[1],21 (51.2%)
same,Subjects with at least one Treatment cycle period TEAE,[1],14 (34.1%)
same,Subjects with at least one Treatment cycle period serious TEAE,[1],1 (2.4%)
same,Subjects with at least one Treatment cycle period severe TEAE,[1],2 (4.9%)
same,Subjects with at least one Treatment period AE,[1],12 (29.3%)
same,Subjects with a TEAE leading to study drug discontinuation,[2],0%
same,Subjects with a Treatment cycle period AE leading to study withdrawal,[2],0%
same,Subjects with at least one TEAE,[2],8 (33.3%)
same,Subjects with at least one Treatment cycle period TEAE,[2],6 (25.0%)
same,Subjects with at least one Treatment cycle period serious TEAE,[2],0%
same,Subjects with at least one Treatment cycle period severe TEAE,[2],0%
same,Subjects with at least one Treatment period AE,[2],5 (20.8%)
same,Subjects with a TEAE leading to study drug discontinuation,[3],0%
same,Subjects with a Treatment cycle period AE leading to study withdrawal,[3],0%
same,Subjects with at least one TEAE,[3],3 (33.3%)
same,Subjects with at least one Treatment cycle period TEAE,[3],2 (22.2%)
same,Subjects with at least one Treatment cycle period serious TEAE,[3],0%
same,Subjects with at least one Treatment cycle period severe TEAE,[3],0%
same,Subjects with at least one Treatment period AE,[3],2 (22.2%)
same,Subjects with a TEAE leading to study drug discontinuation,[4],(1.5%)
same,Subjects with a Treatment cycle period AE leading to study withdrawal,[4],(1.9%)
same,Subjects with at least one TEAE,[4],(57.9%)
same,Subjects with at least one Treatment cycle period TEAE,[4],(50.4%)
same,Subjects with at least one Treatment cycle period serious TEAE,[4],(0.4%)
same,Subjects with at least one Treatment cycle period severe TEAE,[4],(2.3%)
same,Subjects with at least one Treatment period AE,[4],(47.4%)
same,Subjects with a TEAE leading to study drug discontinuation,[5],1 (1.1%)
same,Subjects with a Treatment cycle period AE leading to study withdrawal,[5],1 (1.1%)
same,Subjects with at least one TEAE,[5],48 (54.5%)
same,Subjects with at least one Treatment cycle period TEAE,[5],36 (40.9%)
same,Subjects with at least one Treatment cycle period serious TEAE,[5],1 (1.1%)
same,Subjects with at least one Treatment cycle period severe TEAE,[5],2 (2.3%)
same,Subjects with at least one Treatment period AE,[5],29 (33.0%)
same,Subjects with a TEAE leading to study drug discontinuation,[6],0%
same,Subjects with a Treatment cycle period AE leading to study withdrawal,[6],0%
same,Subjects with at least one TEAE,[6],19 (42.2%)
same,Subjects with at least one Treatment cycle period TEAE,[6],14 (31.1%)
same,Subjects with at least one Treatment cycle period serious TEAE,[6],0%
same,Subjects with at least one Treatment cycle period severe TEAE,[6],0%
same,Subjects with at least one Treatment period AE,[6],12 (26.7%)
same,Subjects with a TEAE leading to study drug discontinuation,[7],0%
same,Subjects with a Treatment cycle period AE leading to study withdrawal,[7],0%
same,Subjects with at least one TEAE,[7],7 (36.8%)
same,Subjects with at least one Treatment cycle period TEAE,[7],3 (15.8%)
same,Subjects with at least one Treatment cycle period serious TEAE,[7],0%
same,Subjects with at least one Treatment cycle period severe TEAE,[7],0%
same,Subjects with at least one Treatment period AE,[7],3 (15.8%)
same,Subjects with a TEAE leading to study drug discontinuation,[8],0%
same,Subjects with a Treatment cycle period AE leading to study withdrawal,[8],0%
same,Subjects with at least one TEAE,[8],6 (54.5%)
same,Subjects with at least one Treatment cycle period TEAE,[8],4 (36.4%)
same,Subjects with at least one Treatment cycle period serious TEAE,[8],0%
same,Subjects with at least one Treatment cycle period severe TEAE,[8],0%
same,Subjects with at least one Treatment period AE,[8],4 (36.4%)
same,Proportion of subjects reporting TEAEs,"Low Dose cohort, as printed in b423 (451/677)",66.6%
same,SAEs considered probably or possibly related to the study drug,"Low dose cohort (30 mg only), treatment cycle 1",none
same,Subjects reporting TEAEs leading to dose reduction,Cycle 1,3.4%
same,Subjects reporting TEAEs leading to dose reduction,Cycle 2,4.4%
same,Subjects reporting TEAEs leading to dose reduction,Cycle 3,2.3%
same,Subjects reporting TEAEs leading to dose reduction,Cycle 4 (0/43),0%
same,Subjects reporting TEAEs leading to dose reduction,Cycle 5,10%
same,Subjects reporting TEAEs leading to dose reduction,overall (32/645),5.0%
same,Subjects with at least one TEAE,Overall (N = 924),618 (66.9%)
same,Subjects with at least one TEAE leading to study drug discontinuation,Overall (N = 924),32 (3.5%)
same,Subjects with at least one TEAE leading to study withdrawal,Overall (N = 924),46 (5.0%)
same,Subjects with at least one serious TEAE,Overall (N = 924),27 (2.9%)
same,Subjects with at least one severe TEAE,Overall (N = 924),60 (6.5%)
same,Subjects with Treatment Cycle Period TEAE,30 mg Cohort (N = 725),368 (50.8%)
same,Subjects with Treatment Period TEAE,30 mg Cohort (N = 725),348 (48.0%)
same,Subjects with Treatment Cycle Period TEAE,50 mg Cohort (N = 199),117 (58.8%)
same,Subjects with Treatment Period TEAE,50 mg Cohort (N = 199),108 (54.3%)
same,Subjects with Treatment Cycle Period TEAE,Dose Switch Cohort (N = 80),31 (38.8%)
same,Subjects with Treatment Period TEAE,Dose Switch Cohort (N = 80),28 (35.0%)
same,Subjects with Treatment Cycle Period TEAE,Low Dose Cohort (N = 645),337 (52.2%)
same,Subjects with Treatment Period TEAE,Low Dose Cohort (N = 645),320 (49.6%)
same,Subjects with Treatment Cycle Period TEAE,Overall (N = 924),485 (52.5%)
same,Subjects with Treatment Period TEAE,Overall (N = 924),456 (49.4%)
same,Severity of the majority of TEAEs,all dose cohorts,mild to moderate; also recorded: mild or moderate
same,Suicidal ideation or suicidal behavior compared to baseline (C-SSRS),any study period or dose cohort,no signal for increased suicidal ideation or suicidal behavior
same,Tolerability,first course of Compound (1) 30 mg,generally well-tolerated
same,Most common AEs that led to dose reduction,in vivo,"Somnolence, Dizziness, Sedation and Headache"
same,TEAE diarrhea,[9],6.3%
same,TEAE dizziness,[9],9.1%
same,TEAE dry mouth,[9],5.5%
same,TEAE headache,[9],13.9%
same,TEAE insomnia,[9],5.4%
same,TEAE sedation,[9],8.7%
same,TEAE somnolence,[9],12.8%
same,TEAE upper respiratory infection,[9],6.3%
same,Overall safety observations with 50 mg versus safety findings with 30 mg,subjects receiving Compound (1) 50 mg,comparable
same,Subjects reporting SAEs,"treatment cycle 1, 50 mg cohort (5/199)",2.5%
same,Subjects reporting SAEs,"treatment cycle 1, Low Dose cohort (6/645)",0.9%
